Several values for one entry are separate records, joined by “and”; a condition that tells them apart may be missing. Equal entries are not always repeated.

Test [1] concerns 5-HT release in rat synaptosomes. Put plainly: Serotonin release assay in rat cortex synaptosomes. The format is biochemical. As to conditions: for 5-HT Release (pEC50): rat cortex synaptosomes, % of maximal release with 50 μM MDMA, n=2; for SERT/DAT Release Ratio: ratio of 5-HT and DA release potency, rat synaptosomes. How it is done: (§1) Methods-Evaluation of Monoamine Release: The potency of therapeutic compounds for stimulating DA release was measured by an endpoint release filtration assay in a 96-well format using rat synaptosomes, essentially as described by Sandtner et al. (Mol Pharmacol., 2016; 89(1):165-75.) and Baumann et al. (Neuropsychopharmacol, 2013; 38:552-562.) with some variations. One male rat was euthanized, and striatum/cortex regions were dissected over ice. The striatum portions were weighed and put in a glass tube containing ice-cold 0.32 M sucrose (dilution 1:24 w/v) for homogenization, while the frontal cortex tissue was diluted in ice-cold 0.32 M sucrose, 1:20 w/v. Tissues were homogenized and centrifuged for 10 mins at 1000×g. The two supernatants from striatum and cortex (crude synaptosomes) were retained on ice until use.
(§2) Test compounds were then serially diluted 1:4 in neat DMSO as concentration-response curves (CRC) of 11 points. To each well of a 2-mL 96 deep-well plate (Whatman UNIPLATE 96 well) were added: 2 μL of a concentration-response curve (CRC) of test compounds or 2 μL of DMSO (no-release condition) or 2 μL of MDMA 10 mM solution (final 50 μM, for maximal release), followed by 200 μL/well of complete Krebs-phosphate buffer (126 mM NaCl, 2.4 mM KCl, 0.83 mM CaCl2), 0.8 mM MgCl2, 0.5 mM KH2PO4, 0.5 mM Na2SO4, 11.1 mM glucose, 0.05 mM pargyline, 1 mg/mL ascorbic acid, freshly added, pH 7.4), containing 1 μM reserpine to block vesicular uptake of substrate. Desipramine (100 nM) and citalopram (100 nM) were also added to the release assay buffer in order to inhibit NET and SERT uptake, respectively. The final compound dilution, then, was 1:200 in 0.5% DMSO.
(§3) The raw data (cpm) from residual radioactivity onto the filter were elaborated for the determination of pEC50/EC50 values. Specifically, the compound effect was expressed as the percent of maximal release obtained with 50 μM MDMA (100% release) in comparison to vehicle (0.5% DMSO, 0% release). Both MDMA and D-amphetamine in CRC were used as internal controls in each release experiment. In each plate, for both 0% and 100% of release, the signal window was monitored and Z′ calculations were determined using the raw data of four replicates. 5-HT release was calculated in an identical fashion, except that 5 nM 3H-serotonin was added to crude cortex synaptosomes preparation diluted 1:13 (v/v) in complete Krebs-phosphate buffer containing 1 μM Reserpine, 100 nM GBR12909 and 100 nM nomifensine to block vesicular, DAT, and NET uptake, respectively. Synaptosomes were then loaded with 3H-5HT for 60 minutes at RT. After dispensing loaded synaptosomes onto a compound plate (200 μL/well), the release reaction proceeded for an additional 15 minutes. Stop by filtration, counting, and data elaboration were performed as described for DA release. Compounds were tested in duplicate (n=2).

The subject of test [2] is DA release in rat synaptosomes. Put plainly: Dopamine release assay in rat striatal synaptosomes. The format is biochemical. As to conditions: % of maximal release with 50 μM MDMA, n=2. How it is done:
as §1, §2
3H-Dopamine was added to the tube containing the crude striatal synaptosomes preparation, diluted 1:20 (v/v) in complete Krebs-phosphate buffer, and was incubated at RT and gently mixed for 60 minutes. Then, 200 μL/well of 3H-DA loaded synaptosomes were dispensed to the compound plate (final 400 μL/well), and the release reaction proceeded for an additional 15 minutes at RT. The release was terminated by vacuum filtration and washing three times with 1 mL of saline solution (NaCl 0.9%) at RT. The retained radioactivity was counted in a scintillation counter after the addition of 50 μL/well Microscint-20.
as §3

The target in test [3] is T1, human DAT (Homo sapiens, UniProt Q01959).
T1 construct: expressed in transfected cells; host or cells: CHO (hDAT-CHO)
In words: DAT uptake SPA in hDAT-CHO cells. As to conditions: [3H]-dopamine uptake, hDAT-CHO cells; read-out: DAT Uptake SPA (pIC50) (converted). The class given is cell-based.
Description: Methods-Evaluation of Monoamine Uptake/Transporter Inhibition: Inhibitory activity on DAT function was measured using an uptake assay in a recombinant CHO cell line stably expressing human DAT (hDAT-CHO). Potency was measured in terms of pIC50 by testing for inhibition of [3H]-dopamine uptake in hDAT-CHO cells in a multiwell format SPA.
(§4) Briefly, on experiment days, hDAT-CHO cells were detached using Versene and added at a density of approximately 300,000 cells/mL to the SPA Mixture, which contains the following components in Assay Buffer (20 mM HEPES, 145 mM NaCl, 5 mM KCl, 2 mM CaCl2), 1 mM MgCl2, 5.5 mM glucose, 0.01% Pluronic F127, pH 7.3): 0.75 mg/mL SPA Imaging beads (RPNQ0001, PerkinElmer), 10 μM pargyline and 80 nM of [3H]-dopamine (NET673, PerkinEImer). The SPA Mixture was added 20 μL/well to 384 well plates containing 0.1 μL/well of test compound in neat DMSO (11 points of 1:5 serial dilution, 0.5% DMSO final) or 0.1 μL of DMSO (total uptake) or 0.1 μL of the standard inhibitor indatraline (at 1 μM final concentration, as nonspecific uptake). Plates were sealed with a Top-seal A and read using a Microbeta counter (PerkinElmer) after 45 minutes of incubation at room temperature. […] The SPA Mixture was added 20 μL/well to 384 well plates containing 0.1 μL/well of test compound in neat DMSO (11 points of 1:5 serial dilution, 0.5% DMSO final), 0.1 μL of DMSO (total uptake), or 0.1 μL of the standard inhibitor indatraline (1 μM, nonspecific uptake). Plates were sealed with a Top-seal A and read using a Microbeta counter (PerkinElmer) after 120 minutes of incubation at room temperature.
For both tests, the raw experimental data (cpm) were elaborated for the determination of pIC50/IC50 values as % inhibition of specific uptake.

Test [4] has as its target T2, hSERT (Homo sapiens, UniProt P31645).
T2 construct: expressed in transfected cells; host or cells: CHO (hSERT-CHO)
In words: SERT uptake SPA in hSERT-CHO cells. The format is cell-based. Particulars: for IC50: [3H]-serotonin uptake, hSERT-CHO cells, read-out: SERT Uptake SPA (pIC50) (converted).
Description: as §4
For both tests, the raw experimental data (cpm) were elaborated for the determination of pIC50/IC50 values as % inhibition of specific uptake. Concentration-response curves of MDMA, MDDMA, citalopram and GBR-12909 were used as internal standards in all experiments, and the signal window was monitored in each plate performing Z′ calculations, as described in Zhang et al., J Biomol Screen.

In test [5] the test system is DAT/SERT. Particulars: Simmler et al., Br J Pharmacol. 2013; cited from earlier work.

T2 sequence (P31645 whole entry): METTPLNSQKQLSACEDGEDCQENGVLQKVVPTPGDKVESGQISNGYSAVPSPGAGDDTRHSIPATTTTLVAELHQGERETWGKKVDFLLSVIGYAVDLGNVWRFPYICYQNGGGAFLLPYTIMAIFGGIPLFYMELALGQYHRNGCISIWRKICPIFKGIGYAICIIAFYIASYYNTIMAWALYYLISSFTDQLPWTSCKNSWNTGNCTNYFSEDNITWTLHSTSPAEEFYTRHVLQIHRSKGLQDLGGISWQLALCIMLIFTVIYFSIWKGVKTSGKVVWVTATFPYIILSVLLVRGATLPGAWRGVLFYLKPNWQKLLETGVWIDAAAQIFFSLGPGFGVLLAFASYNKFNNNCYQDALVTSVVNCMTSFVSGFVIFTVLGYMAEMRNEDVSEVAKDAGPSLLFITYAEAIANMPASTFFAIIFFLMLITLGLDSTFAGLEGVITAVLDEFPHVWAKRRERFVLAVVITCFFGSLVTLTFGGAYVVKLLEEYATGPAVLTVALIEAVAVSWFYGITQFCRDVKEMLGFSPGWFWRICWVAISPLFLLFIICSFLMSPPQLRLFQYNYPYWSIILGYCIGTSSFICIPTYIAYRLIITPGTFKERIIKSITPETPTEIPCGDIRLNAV
T1 sequence (Q01959 whole entry): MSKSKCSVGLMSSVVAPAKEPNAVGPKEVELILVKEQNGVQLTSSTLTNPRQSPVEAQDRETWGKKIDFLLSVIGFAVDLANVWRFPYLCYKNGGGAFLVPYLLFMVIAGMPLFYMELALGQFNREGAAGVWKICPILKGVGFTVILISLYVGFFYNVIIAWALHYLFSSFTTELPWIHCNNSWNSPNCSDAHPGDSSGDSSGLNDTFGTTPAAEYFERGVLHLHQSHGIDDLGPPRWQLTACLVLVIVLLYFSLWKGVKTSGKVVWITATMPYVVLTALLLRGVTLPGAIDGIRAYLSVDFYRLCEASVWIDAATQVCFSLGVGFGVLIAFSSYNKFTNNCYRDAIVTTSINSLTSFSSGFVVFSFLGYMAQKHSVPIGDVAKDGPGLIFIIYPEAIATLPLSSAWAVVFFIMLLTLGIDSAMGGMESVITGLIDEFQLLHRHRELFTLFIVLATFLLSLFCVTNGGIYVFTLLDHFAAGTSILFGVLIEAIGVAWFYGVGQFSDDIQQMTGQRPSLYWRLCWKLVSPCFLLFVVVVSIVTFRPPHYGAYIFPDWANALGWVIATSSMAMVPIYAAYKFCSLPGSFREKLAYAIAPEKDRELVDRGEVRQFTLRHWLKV

In the case of `COC(=O)Cc1ccc2c(c1)CC(N)C2` (centres unmarked) [CMP-406], the “5-HT Release (pEC50)” value in test [1] was found to be 4.3. Further, the “SERT/DAT Release Ratio” value in test [1] is listed as >2.0. For the same molecule, the “DA Release (pEC50)” value in test [2] is <4.0. Besides, the IC50 in test [3] was > 100 µM; in test [4], 63.1 µM. Further, in test [4] (calculated as 1/SERT IC50:1/DAT IC50), the “SERT/DAT Uptake Ratio” value is >1.6.
For the molecule `COC(=O)CCc1ccc2c(c1)CC(N)C2` (centres unmarked) [CMP-407], in test [1], the “5-HT Release (pEC50)” value is <4.0 and the “SERT/DAT Release Ratio” value is recorded as <0.25. Also, in test [2], the “DA Release (pEC50)” value came out at 4.6. The IC50 in test [3] was 63.1 µM. The IC50 in test [4] is 25.1 µM.
With `COC(=O)Cc1cc2c(cc1OC)CC(N)C2` (centres unmarked) [CMP-408], in test [1], the “5-HT Release (pEC50)” value is listed as 4.6 and the “SERT/DAT Release Ratio” value is on record as 3.9. For the same molecule, the “DA Release (pEC50)” value in test [2] is reported as <4.0. Further, the IC50 in test [3] is 100 µM. The IC50 in test [4] was 39.8 µM.
With `CN[C@@H](C)Cc1ccccc1` [methamphetamine], in test [5], the DAT/SERT ratio is > 10 and 10.

The record behind these values is patent US20260159474A1, “Aminoindane Compounds and Compositions and Methods of Their Therapeutic Use” (Solvonis Therapeutics Ireland Holdings Limited, priority 2021, published 2026).
